Source: patent US10975079B2, “4-amino-3-phenylamino-6-phenylpyrazolo[3,4-d]pyrimidine derivatives for use as BCRP inhibitors in therapeutic treatments” (SCANDION ONCOLOGY A/S, priority 2015, dated 2021)

Columns and labels:
CYP1A = test: Cytochrome P450 inhibition (DMPK studies); format: in vitro ADME
CYP2D6 = CYP2D6 (Homo sapiens, UniProt P10635); test: Cytochrome P450 inhibition (DMPK studies); format: in vitro ADME
From the text: (§1) Also no induction of CYP1A2, CYP2B6, and CYP3A4 could be found.

CYP2C19 = CYP2C19 (Homo sapiens, UniProt P33261); test: Cytochrome P450 inhibition (DMPK studies); format: in vitro ADME
Sequence of CYP2C19 (P33261 whole entry): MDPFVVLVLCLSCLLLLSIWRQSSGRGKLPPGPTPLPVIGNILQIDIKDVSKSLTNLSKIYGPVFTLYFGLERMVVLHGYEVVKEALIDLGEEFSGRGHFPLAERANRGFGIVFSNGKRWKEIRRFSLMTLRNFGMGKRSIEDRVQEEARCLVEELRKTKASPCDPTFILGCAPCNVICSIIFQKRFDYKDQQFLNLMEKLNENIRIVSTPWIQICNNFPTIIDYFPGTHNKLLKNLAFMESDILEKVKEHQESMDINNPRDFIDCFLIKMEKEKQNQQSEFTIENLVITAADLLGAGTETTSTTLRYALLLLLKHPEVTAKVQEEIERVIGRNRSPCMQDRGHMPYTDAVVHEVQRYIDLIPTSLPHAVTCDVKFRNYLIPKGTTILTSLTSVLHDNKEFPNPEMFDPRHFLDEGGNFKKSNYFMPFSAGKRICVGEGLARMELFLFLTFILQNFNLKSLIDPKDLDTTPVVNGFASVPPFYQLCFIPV
From the text: as §1

CYP3A = test: Cytochrome P450 inhibition (DMPK studies); format: in vitro ADME
From the text: as §1

CYP2C8 = target: T1, CYP2C8 (Homo sapiens, UniProt P10632); test: Cytochrome P450 inhibition (DMPK studies); format: in vitro ADME
T1 sequence (P10632 1-490): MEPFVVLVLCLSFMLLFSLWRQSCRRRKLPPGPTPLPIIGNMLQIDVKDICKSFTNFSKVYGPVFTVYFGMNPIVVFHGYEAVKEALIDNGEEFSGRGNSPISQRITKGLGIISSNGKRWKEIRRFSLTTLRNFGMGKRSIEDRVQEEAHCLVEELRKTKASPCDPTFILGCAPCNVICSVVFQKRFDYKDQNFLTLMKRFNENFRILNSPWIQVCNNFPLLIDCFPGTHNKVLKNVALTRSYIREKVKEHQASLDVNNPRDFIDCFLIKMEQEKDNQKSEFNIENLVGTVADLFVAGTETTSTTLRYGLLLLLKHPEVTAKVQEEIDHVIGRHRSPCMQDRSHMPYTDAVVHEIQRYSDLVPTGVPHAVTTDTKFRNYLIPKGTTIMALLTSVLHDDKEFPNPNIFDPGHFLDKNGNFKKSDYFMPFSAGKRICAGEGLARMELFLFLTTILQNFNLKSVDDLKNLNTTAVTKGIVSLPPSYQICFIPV
From the text: as §1

CYP2C9 = CYP2C9 (Homo sapiens, UniProt P11712); test: Cytochrome P450 inhibition (DMPK studies); format: in vitro ADME
Sequence of CYP2C9 (P11712 whole entry): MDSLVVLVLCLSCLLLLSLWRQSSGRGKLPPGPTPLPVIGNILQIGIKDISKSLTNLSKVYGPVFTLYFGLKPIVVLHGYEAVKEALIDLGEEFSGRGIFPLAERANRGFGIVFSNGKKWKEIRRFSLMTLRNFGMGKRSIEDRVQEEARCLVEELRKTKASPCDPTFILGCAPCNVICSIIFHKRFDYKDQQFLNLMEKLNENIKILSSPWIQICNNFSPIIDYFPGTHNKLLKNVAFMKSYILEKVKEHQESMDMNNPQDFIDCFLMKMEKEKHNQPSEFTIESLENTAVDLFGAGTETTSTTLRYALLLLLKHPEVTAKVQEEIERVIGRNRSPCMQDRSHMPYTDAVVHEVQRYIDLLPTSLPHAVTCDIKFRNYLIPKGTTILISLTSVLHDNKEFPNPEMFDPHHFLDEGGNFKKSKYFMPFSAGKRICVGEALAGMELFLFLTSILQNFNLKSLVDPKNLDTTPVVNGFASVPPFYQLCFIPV
From the text: as §1

CYP3A4 = test: Cytochrome P450 induction (DMPK studies); format: in vitro ADME
From the text: as §1

CYP2B6 [1] = test: Cytochrome P450 induction (DMPK studies); format: in vitro ADME
From the text: as §1

CYP1A2 = test: Cytochrome P450 induction (DMPK studies); format: in vitro ADME
From the text: as §1

BCRP = target: T2, BCRP (Homo sapiens, UniProt Q9UNQ0); test: BCRP fluorimetric inhibition assay, Hoechst 33342 substrate, recombinant CHO-K1 cells; format: cell-based; conditions: Hoechst 33342 (5 μm) substrate, 20 min at 37° C., fluorimetry
T2 construct: expressed in transfected cells; host or cells: CHO-K1
T2 sequence (Q9UNQ0 1-655): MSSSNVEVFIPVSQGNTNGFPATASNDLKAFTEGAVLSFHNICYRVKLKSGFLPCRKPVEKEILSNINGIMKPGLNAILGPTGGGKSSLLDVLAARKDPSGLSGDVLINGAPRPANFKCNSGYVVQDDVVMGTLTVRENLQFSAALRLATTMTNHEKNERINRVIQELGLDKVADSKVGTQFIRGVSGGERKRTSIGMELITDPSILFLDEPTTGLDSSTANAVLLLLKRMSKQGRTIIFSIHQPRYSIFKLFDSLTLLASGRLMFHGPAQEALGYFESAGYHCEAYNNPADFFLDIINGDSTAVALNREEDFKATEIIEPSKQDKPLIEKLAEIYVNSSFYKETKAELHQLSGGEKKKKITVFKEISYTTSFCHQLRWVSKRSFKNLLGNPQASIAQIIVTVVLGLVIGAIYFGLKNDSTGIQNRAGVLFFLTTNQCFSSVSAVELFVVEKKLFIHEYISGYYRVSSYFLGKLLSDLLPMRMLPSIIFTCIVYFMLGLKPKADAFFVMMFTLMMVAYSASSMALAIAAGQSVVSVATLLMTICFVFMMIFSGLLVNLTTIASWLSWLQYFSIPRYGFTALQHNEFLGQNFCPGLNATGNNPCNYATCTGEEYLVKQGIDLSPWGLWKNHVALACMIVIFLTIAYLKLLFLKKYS
Procedure: The IC-50 value of OBR 5-340 and MS 112 were determined according to the method described by Paturi D. K, et al in Int. J. Pharm. (2010), 384: 32-38. The source used for the determination was human recombinant CHO-K1 cells, while Hoechst 33342 (5 μm) was used as the substrate. The cells were incubated for 20 min at 37° C. and the detection was accomplished by fluorimetry.
Fluorimetric Inhibition Assay:
The percent of control is calculated using the following equation.
In this formula, “Compound” is the individual reading in the presence of the test compound. “T1” is the mean reading in the absence of the test compound. Background is the mean reading in the presence of the highest effective concentration of the reference inhibitor.
The percent of inhibition is calculated by subtracting the percent of control from 100. The IC50 value (concentration causing a half-maximal inhibition of the control value) is determined by non-linear regression analysis of the concentration-response curve using the Hill equation.

CYP2B6 [2] = target: T3, CYP2B6 (Homo sapiens, UniProt P20813); test: Cytochrome P450 inhibition (DMPK studies); format: in vitro ADME
T3 sequence (P20813 1-491): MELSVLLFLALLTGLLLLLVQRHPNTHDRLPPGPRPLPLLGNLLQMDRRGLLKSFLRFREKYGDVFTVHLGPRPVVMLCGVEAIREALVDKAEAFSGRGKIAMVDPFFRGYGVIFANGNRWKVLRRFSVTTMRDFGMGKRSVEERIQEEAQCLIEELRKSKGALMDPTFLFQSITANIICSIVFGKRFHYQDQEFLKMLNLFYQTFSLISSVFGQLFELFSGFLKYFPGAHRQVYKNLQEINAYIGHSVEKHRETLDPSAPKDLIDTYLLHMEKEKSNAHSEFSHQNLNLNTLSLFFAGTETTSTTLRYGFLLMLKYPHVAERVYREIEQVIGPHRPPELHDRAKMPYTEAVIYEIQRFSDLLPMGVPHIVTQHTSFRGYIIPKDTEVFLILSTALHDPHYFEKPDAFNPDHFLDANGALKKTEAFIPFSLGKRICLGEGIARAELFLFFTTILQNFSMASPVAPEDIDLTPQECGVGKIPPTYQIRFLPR

Sequence of CYP2D6 (P10635 whole entry): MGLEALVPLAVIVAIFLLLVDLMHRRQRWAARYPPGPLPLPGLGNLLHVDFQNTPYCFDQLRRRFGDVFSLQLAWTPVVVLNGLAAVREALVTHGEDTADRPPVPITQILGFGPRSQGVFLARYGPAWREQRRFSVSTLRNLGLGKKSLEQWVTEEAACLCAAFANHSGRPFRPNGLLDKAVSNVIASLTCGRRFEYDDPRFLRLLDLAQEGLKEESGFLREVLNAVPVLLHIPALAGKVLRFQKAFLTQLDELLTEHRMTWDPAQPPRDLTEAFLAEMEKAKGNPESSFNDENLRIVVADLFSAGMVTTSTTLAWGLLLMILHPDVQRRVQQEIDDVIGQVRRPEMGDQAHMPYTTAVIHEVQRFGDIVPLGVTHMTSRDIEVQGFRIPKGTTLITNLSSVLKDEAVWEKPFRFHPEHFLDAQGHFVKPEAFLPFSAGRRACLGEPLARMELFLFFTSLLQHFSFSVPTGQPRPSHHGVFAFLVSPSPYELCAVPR

| inhibition of CYP1A (CYP1A) | inhibition of CYP2D6 (CYP2D6) | inhibition of CYP2C19 (CYP2C19) | inhibition of CYP3A (CYP3A) | inhibition of CYP2C8 (CYP2C8) | inhibition of CYP2C9 (CYP2C9) | induction of CYP3A4 (CYP3A4) | induction of CYP2B6 (CYP2B6 [1]) | induction of CYP1A2 (CYP1A2) | IC50 (BCRP) | inhibition of CYP2B6 (CYP2B6 [2]) | SMILES |
| --- | --- | --- | --- | --- | --- | --- | --- | --- | --- | --- | --- |
| does not inhibit | does not inhibit | does not inhibit | does not inhibit | does not inhibit | does not inhibit | no induction | no induction | no induction | 1.7 µM | does not inhibit | Nc1nc(-c2ccccc2)nc2[nH]nc(Nc3ccc(C(F)(F)F)cc3)c12 [OBR-5-340, 4-amino-3-(4-trifluormethyl-phenyl)amino-6-phenylpyrazolo[3,4-d]pyrimidine] |
|  |  |  |  |  |  |  |  |  | ~100 µM |  | Nc1nc(-c2ccc(OC(F)(F)F)cc2)nc2[nH]nc(Nc3ccccc3)c12 [MS-112, 4-amino-3-phenylamino-6-[4-(trifluormethoxy)-phenyl]pyrazolo[3,4-d]pyrimidine] |
